According to patent US8202885B2, “Bridged six-membered ring compounds” (Actelion Pharmaceuticals Ltd., priority 2007, dated 2012):

Key:
isolated mouse hearts = assay: Effect on isolated hearts according to the Langendorff method (Lgdff)
Method: Effect on Isolated Hearts According to the Langendorff Method (Lgdff)
The compounds were tested for their potential to reduce blood pressure and their effect on the contractility of the heart muscle. EC50 values on isolated mouse hearts were determined according to Literature (Doring H J., The isolated perfused heart according to Langendorff technique—function—application, Physiol. Bohemoslov. 1990, 39(6), 481-504; Kligfield P, Horner H, Brachfeld N., A model of graded ischemia in the isolated perfused rat heart, J. Appl. Physiol. 1976 June, 40(6), 1004-8).
51 example compounds have been measured using the procedure described above for the Langendorff experiment. The measured EC50 values were in the range of 4 to 669 nM with an average of 37 nM.

[1] = tested on: human Cav3.1 Cav3.2 or Cav3.3 channel; assay: In vitro assay T channel (FLIPR calcium fluorescence); format: cell-based; settings: HEK293 cells expressing human Cav3.1, Cav3.2 or Cav3.3; 10 mM Ca2+-induced fluo-4 fluorescence; determined up to 10 μM; read-out: T channel antagonistic activity IC50
How it was run: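 IC50 (nM) is the antagonist concentration halving the area under the fluorescence peak evoked by 10 mM Ca2+, relative to vehicle, with testing up to 10 μM. Fluo-4-loaded HEK293 cells expressing each human Cav3 subtype received compound 3 min before Ca2+ addition (TEA-based buffer, pH 7.2); signal monitored 8 min at 2 s intervals.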

human Cav1.2 channel = biological target: T1, human Cav1.2 channel (Homo sapiens, UniProt Q13936); assay: In vitro assay L channel (FLIPR calcium fluorescence); format: cell-based; settings: HEK293 cells expressing human Cav1.2 with β-2a and α2δ-1; 20 mM KCl-induced fluo-4 fluorescence; determined up to 10 μM; read-out: L channel antagonistic activity (IC50)
T1 construct: expressed in transfected cells; host or cells: HEK293
Method: The L channel antagonistic activity (IC50 values) of the compounds of formula (I) is determined in accordance with the following experimental method.
Human embryonic kidney (HEK293) cells expressing the human Cav1.2 channel in addition to the auxiliary subunits β-2a and α2δ-1, are grown in culture medium (DMEM containing 10% heat-inactivated fetal calf serum (FCS), 100 U/ml penicillin, 100 μg/ml streptomycin, 100 μg/ml G418, 40 μg/ml zeocin and 100 μg/ml hygromycin). The cells are seeded at 20.000 cells/well into 384-well black clear bottom sterile plates (poly-L-lysine-coated, Becton Dickinson). The seeded plates are incubated overnight at 37° C. in 5% CO2. The KCl solution is prepared as 80 mM stock solution in assay buffer (HBSS containing 0.1% BSA, 20 mM HEPES, 0.375 g/l NaHCO3, adjusted to pH 7.4 with NaOH) for use in the assay at a final concentration of 20 mM. Antagonists are prepared as 10 mM stock solutions in DMSO, then diluted in 384 w plates first in DMSO, then in assay buffer to obtain 3× stocks. On the day of the assay, 25 μl of staining buffer (HBSS containing 20 mM HEPES, 0.375 g/l NaHCO3, and 3 μM of the fluorescent calcium indicator fluo-4 AM (1 mM stock solution in DMSO, containing 10% pluronic) is added to each well of the seeded plate. The 384-well cell-plates are incubated for 60 min at 37° C. in 5% CO2 followed by washing with 2×50 μl per well using assay buffer leaving 50 μl/well of this buffer for equilibration at room temperature (30-60 min). Within the Fluorescent Imaging Plate Reader (FLIPR, Molecular Devices), antagonists are added to the plate in a volume of 25 μl/well, incubated for 3 min and finally 25 μl/well of KCl solution is added for cellular depolarization. Fluorescence is measured for each well at 2 second intervals for 8 minutes, and the area under the curve of each fluorescence peak is compared to the area of the fluorescence peak induced by 20 mM KCl with vehicle in place of antagonist. […]

T1 sequence (Q13936 whole entry): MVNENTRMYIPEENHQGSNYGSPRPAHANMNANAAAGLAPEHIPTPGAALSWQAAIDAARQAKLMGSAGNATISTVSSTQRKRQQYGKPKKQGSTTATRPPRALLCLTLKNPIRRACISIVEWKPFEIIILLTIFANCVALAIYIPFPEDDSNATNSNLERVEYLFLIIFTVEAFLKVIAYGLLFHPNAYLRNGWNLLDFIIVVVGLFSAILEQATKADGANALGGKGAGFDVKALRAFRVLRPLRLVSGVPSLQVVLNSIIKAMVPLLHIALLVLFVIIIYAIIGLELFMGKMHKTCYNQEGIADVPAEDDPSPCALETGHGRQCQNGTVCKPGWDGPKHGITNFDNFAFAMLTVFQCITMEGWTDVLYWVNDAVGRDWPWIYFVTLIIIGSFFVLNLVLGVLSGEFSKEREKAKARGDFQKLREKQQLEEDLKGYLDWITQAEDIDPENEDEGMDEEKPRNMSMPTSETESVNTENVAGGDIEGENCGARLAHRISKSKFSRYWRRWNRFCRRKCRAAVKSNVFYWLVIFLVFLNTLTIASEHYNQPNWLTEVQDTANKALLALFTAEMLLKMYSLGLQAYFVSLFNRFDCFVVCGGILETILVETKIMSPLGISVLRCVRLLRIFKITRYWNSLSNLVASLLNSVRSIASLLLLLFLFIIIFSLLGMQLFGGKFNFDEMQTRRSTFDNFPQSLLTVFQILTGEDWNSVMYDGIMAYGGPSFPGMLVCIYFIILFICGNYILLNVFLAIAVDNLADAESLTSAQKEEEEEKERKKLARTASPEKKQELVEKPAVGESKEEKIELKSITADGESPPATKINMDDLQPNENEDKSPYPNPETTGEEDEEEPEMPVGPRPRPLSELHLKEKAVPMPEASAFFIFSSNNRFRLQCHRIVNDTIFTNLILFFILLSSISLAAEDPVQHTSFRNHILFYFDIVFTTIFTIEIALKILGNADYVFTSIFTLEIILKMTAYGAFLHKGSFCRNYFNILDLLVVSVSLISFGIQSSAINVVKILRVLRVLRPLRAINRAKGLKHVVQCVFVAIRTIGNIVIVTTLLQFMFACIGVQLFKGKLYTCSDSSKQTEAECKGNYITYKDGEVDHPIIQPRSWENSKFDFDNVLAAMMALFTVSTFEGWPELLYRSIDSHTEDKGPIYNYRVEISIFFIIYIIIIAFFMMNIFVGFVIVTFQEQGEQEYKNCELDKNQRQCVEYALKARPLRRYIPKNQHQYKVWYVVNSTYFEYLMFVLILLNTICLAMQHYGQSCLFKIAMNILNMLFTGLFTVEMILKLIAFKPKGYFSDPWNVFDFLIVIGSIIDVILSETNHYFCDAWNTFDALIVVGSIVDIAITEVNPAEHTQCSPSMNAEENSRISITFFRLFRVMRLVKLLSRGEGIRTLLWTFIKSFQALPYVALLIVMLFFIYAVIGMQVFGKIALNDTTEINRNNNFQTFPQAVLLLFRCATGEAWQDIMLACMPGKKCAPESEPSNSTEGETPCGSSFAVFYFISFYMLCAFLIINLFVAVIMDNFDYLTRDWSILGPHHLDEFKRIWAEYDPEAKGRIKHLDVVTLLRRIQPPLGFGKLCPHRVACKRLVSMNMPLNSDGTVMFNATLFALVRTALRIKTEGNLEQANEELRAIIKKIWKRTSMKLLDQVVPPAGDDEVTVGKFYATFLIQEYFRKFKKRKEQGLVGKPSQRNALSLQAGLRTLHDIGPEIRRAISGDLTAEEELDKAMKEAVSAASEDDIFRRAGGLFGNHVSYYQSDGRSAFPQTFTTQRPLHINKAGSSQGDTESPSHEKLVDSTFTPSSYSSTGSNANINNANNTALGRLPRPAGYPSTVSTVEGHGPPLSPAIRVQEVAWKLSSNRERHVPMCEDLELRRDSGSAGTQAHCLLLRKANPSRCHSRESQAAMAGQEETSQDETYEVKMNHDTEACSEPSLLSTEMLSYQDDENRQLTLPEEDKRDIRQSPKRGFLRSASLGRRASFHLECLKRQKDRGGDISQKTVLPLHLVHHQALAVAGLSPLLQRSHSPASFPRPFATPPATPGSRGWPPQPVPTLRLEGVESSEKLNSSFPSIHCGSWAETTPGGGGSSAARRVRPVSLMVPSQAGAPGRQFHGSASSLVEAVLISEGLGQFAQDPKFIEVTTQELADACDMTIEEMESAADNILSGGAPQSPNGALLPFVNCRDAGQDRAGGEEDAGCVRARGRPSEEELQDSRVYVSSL

| Compound | EC50 (isolated mouse hearts) | IC50 [1] | IC50 (human Cav1.2 channel) |
| --- | --- | --- | --- |
| CC(C)C(=O)O[C@@]1(CCN(C)CCCc2nc3ccccc3[nH]2)C[C@H]2CC[C@@H]1C=C2c1ccc2ccccc2c1 (racemic) [Example 10A, rac-Isobutyric acid (1R*,2R*,4R*)-2-(2-{[3-(1H-benzoimidazol-2-yl)-propyl]-methyl-amino}-ethyl)-5-naphthalen-2-yl-bicyclo[2.2.2]oct-5-en-2-yl ester] | 13 nM | > 10000 nM | > 10000 nM |
| CN(CCCc1nc2ccccc2[nH]1)CC[C@]1(O)C[C@H]2CC[C@@H]1C=C2c1ncco1 (racemic) [Example 25, rac-(1R*,2R*,4R*)-2-(2-{[3-(1H-Benzoimidazol-2-yl)-propyl]-methyl-amino}-ethyl)-5-oxazol-2-yl-bicyclo[2.2.2]oct-5-en-2-ol] |  | > 10000 nM | > 10000 nM |
| COc1cccc2[nH]c(CCCN(C)CC[C@]3(OC(=O)CC(F)(F)F)C[C@H]4CC[C@@H]3C=C4c3ccccc3)nc12 (relative stereo) [Example 26C, rac-3,3,3-Trifluoro-propionic acid (1R*,2R*,4R*)-2-(2-{[3-(4-methoxy-1H-benzoimidazol-2-yl)-propyl]-methyl-amino}-ethyl)-5-phenyl-bicyclo[2.2.2]oct-5-en-2-yl ester] | 4 nM | 4640 nM |  |

Now from value to compound, other results behind:

| EC50 (isolated mouse hearts) | IC50 [1] | Compound | IC50 (human Cav1.2 channel) |
| --- | --- | --- | --- |
|  | > 10000 nM | CN(CCCc1nc2ccccc2[nH]1)CC[C@]1(O)C[C@@H]2C=C[C@H]1CC2 (racemic) [Example 75, rac-(1R*,2R*,4R*)-2-(2-{[3-(1H-Benzoimidazol-2-yl)-propyl]-methyl-amino}-ethyl)-bicyclo[2.2.2]oct-5-en-2-ol] | > 10000 nM |
| 9 nM | 2560 nM | CC(C)C(=O)O[C@@]1(CCN(C)CCCc2cccnc2)C[C@H]2CC[C@@H]1C=C2c1ccccc1 (relative stereo) [Example 46A, rac-Isobutyric acid (1R*,2R*,4R*)-2-{2-[methyl-(3-pyridin-3-yl-propyl)-amino]-ethyl}-5-phenyl-bicyclo[2.2.2]oct-5-en-2-yl ester] |  |
| 5 nM | 571 nM | COc1ccc(OC)c2[nH]c(CCCN(C)CC[C@]3(OC(=O)C(C)C)C[C@H]4CC[C@@H]3C=C4c3ccccc3)nc12 (relative stereo) [Example 61A, rac-Isobutyric acid (1R*,2R*,4R*)-2-(2-{[3-(4,7-dimethoxy-1H-benzoimidazol-2-yl)-propyl]-methyl-amino}-ethyl)-5-phenyl-bicyclo[2.2.2]oct-5-en-2-yl ester] |  |
